For the assay, the target named is Ras-related C3 botulinum toxin substrate 1 (Homo sapiens) (UniProt P63000). The assay can be described thus: wildtype Rac1 GTP binding inhibitors, SAR follow-up, biochemical, additional analogs, multiplex bead flow cytometry (AID 2040). Conditions: for Ki: measured here: Ki derived from EC50.

Structures are written as SMILES. The source made the active and inactive calls. No rule for the calls is given here.

Consider 16 compounds from PubChem BioAssay AID2040 (NMMLSC, 2009).

In general, EC50 refers to the concentration that produces a half-maximal response. A word on the Ki: it is the dissociation constant of the complex between target and ligand, obtained from inhibition or displacement.

Regarding `O=C1N=c2ccccc2=C1c1[nH]c(=S)[nH]c1O`, the EC50 entry is “inactive” and the Ki is 0.16 µM.

As for `O=C1C(c2c(O)[nH]c3ccccc23)=Nc2ccccc21`, the EC50 was > 30 µM (inactive).

In the case of `O=Nc1c(-c2c(O)[nH]c3ccc(Br)cc23)[nH]c2ccccc12`, the EC50 was > 30 µM (inactive).

Regarding `O=Nc1c(-c2c(O)[nH]c3ccccc23)[nH]c2ccccc12`, the EC50 is > 30 µM (inactive).

With `O=C1C(c2c(O)[nH]c3c(F)cccc23)=Nc2ccccc21`, the EC50 result is “inactive” and the Ki was 3.23 µM.

`O=C1Nc2cccc(Br)c2/C1=C1/Cc2ccccc2C1=O` gave an inhibition constant Ki of 1.13 µM.

As to `COc1ccc(S(=O)(=O)n2c(N)c(C#N)c(-c3cncc(Br)c3)c2C(=O)c2ccccc2)cc1`, the inhibition constant (Ki) was found to be 0.92 µM.

Turning to `O=Nc1c(-c2c(O)[nH]c3c(Br)cccc23)[nH]c2ccccc12`, the EC50 was > 30 µM (inactive).

Regarding `O=Nc1c(-c2c(O)[nH]c3c(F)cccc23)[nH]c2ccccc12`, the EC50 was > 30 µM (inactive).

With `O=Nc1c(-c2c(O)[nH]c3c(Cl)cccc23)[nH]c2ccccc12`, the EC50 was > 30 µM (inactive).

Take `O=C1C(c2c(O)[nH]c3c(Cl)cccc23)=Nc2ccccc21`: the EC50 is > 30 µM (inactive).

In turn, `CSc1ccc(/C=C2/C(C)=C(CC(=O)O)c3cc(F)ccc32)cc1` returned an inhibition constant (Ki) of 5.11 µM.

With `O=C1C(c2c(O)[nH]c3c(Br)cccc23)=Nc2ccccc21`, the EC50 was > 30 µM (inactive).

Take `O=C1N=c2ccccc2=C1c1[nH]c(=O)[nH]c1O`: the EC50 entry is “inactive” and the Ki amounted to 0.25 µM.

Regarding `COc1cc(-c2c(C#N)c(N)n(S(=O)(=O)c3c(C(C)C)cc(C(C)C)cc3C(C)C)c2C(=O)c2ccccc2)cc(OC)c1OC`, the Ki was determined as 7.04 µM.

For the compound `O=C1C(c2c(O)[nH]c3ccc(Br)cc23)=Nc2ccccc21`, the EC50 entry was “inactive” and the Ki is 1.51 µM.
